Drawing on US20230092890A1, “1, 3, 4-Oxadiazole derivative compounds as histone deacetylase 6 inhibitor, and the pharmaceutical composition comprising the same” (Chong Kun Dang Pharmaceutical Corp., priority 2019, published 2023), this text covers IC50 for 17 molecules.

Assay [1] addresses T1, HDAC1 (Homo sapiens, UniProt Q13547).
T1 construct: purchased Enzolifesciences BML-AK511
Nature of the assay: HDAC enzyme activity inhibition (in vitro), HDAC1 Fluorimetric Drug Discovery Assay Kit. The following applies: samples at 100, 1000 and 10000 nM; 37° C. 60 minutes; fluorescence Ex 390, Em 460; read-out: HDAC1 IC50. Type of assay: biochemical. On the procedure: <Experimental Example 1> Identification of HDAC Enzyme Activity Inhibition (In Vitro)
A selective HDAC6 inhibitor is important for selectivity of HDAC1 inhibition, which is a cause of side effects, and thus HDAC1/6 enzyme selectivity and cell selectivity (HDAC1: histone acetylation/HDAC6: tubulin acetylation) were identified.
A HDAC enzyme inhibitory capacity of a test material was measured by using HDAC1 Fluorimetric Drug Discovery Assay Kit (Enzolifesciences: BML-AK511) and HDAC6 human recombinant (Calbiochem: 382180). For a HDAC1 assay, samples were treated at a concentration of 100, 1000 and 10000 nM. For a HDAC6 assay, samples were treated at a concentration of 0.1, 1, 10, 100 and 1000 nM. After the above sample treatment, a reaction was continued at 37° C. for 60 minutes, then treated with a developer, and then subjected to a reaction at 37° C. for 30 minutes, after which fluorescence intensity (Ex 390, Em 460) was measured by using FlexStatin3 (Molecular device).

Assay [2] deals with T2, HDAC6 human recombinant (Homo sapiens, UniProt Q9UBN7).
T2 construct: purchased Calbiochem 382180
T2 sequence (Q9UBN7 1-1215): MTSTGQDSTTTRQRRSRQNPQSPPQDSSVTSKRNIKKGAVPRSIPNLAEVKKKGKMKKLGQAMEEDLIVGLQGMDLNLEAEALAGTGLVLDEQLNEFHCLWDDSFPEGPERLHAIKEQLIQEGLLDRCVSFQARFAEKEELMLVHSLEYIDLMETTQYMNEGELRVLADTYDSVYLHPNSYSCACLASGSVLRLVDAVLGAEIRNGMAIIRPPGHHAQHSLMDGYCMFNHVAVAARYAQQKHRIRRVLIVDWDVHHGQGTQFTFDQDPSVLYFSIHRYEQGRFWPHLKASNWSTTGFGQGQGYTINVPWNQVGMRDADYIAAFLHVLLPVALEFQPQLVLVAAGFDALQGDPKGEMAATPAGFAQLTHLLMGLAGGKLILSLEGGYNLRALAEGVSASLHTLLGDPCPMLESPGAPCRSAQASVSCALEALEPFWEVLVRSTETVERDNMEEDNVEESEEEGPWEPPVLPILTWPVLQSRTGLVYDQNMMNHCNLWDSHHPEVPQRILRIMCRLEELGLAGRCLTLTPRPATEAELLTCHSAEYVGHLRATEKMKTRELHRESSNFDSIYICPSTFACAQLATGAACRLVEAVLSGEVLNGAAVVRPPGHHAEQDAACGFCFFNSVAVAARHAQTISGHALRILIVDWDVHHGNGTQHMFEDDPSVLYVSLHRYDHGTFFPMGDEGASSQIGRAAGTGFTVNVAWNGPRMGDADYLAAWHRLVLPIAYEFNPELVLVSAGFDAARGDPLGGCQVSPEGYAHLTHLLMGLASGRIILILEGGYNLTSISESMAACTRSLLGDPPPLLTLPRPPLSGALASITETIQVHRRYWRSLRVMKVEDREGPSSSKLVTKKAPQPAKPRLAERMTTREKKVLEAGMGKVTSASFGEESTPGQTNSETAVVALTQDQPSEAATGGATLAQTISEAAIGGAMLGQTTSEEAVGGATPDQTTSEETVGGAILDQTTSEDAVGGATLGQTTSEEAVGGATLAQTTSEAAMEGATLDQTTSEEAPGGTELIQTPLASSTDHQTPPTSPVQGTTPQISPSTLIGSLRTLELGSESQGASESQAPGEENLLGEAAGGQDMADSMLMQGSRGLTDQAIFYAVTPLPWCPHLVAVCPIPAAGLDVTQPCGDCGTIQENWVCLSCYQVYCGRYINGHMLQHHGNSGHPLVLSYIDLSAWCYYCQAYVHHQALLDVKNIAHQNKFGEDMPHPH
Nature of the assay: HDAC enzyme activity inhibition (in vitro), HDAC6 assay. Type of assay: biochemical. The following applies: samples at 0.1, 1, 10, 100 and 1000 nM; 37° C. 60 minutes; fluorescence Ex 390, Em 460; read-out: HDAC6 IC50. On the procedure: A HDAC enzyme inhibitory capacity of a test material was measured by using HDAC1 Fluorimetric Drug Discovery Assay Kit (Enzolifesciences: BML-AK511) and HDAC6 human recombinant (Calbiochem: 382180). For a HDAC1 assay, samples were treated at a concentration of 100, 1000 and 10000 nM. […] After the above sample treatment, a reaction was continued at 37° C. for 60 minutes, then treated with a developer, and then subjected to a reaction at 37° C. for 30 minutes, after which fluorescence intensity (Ex 390, Em 460) was measured by using FlexStatin3 (Molecular device).

Where only a bound is given, the exact number is not on record here.

T1 sequence (Q13547 whole entry): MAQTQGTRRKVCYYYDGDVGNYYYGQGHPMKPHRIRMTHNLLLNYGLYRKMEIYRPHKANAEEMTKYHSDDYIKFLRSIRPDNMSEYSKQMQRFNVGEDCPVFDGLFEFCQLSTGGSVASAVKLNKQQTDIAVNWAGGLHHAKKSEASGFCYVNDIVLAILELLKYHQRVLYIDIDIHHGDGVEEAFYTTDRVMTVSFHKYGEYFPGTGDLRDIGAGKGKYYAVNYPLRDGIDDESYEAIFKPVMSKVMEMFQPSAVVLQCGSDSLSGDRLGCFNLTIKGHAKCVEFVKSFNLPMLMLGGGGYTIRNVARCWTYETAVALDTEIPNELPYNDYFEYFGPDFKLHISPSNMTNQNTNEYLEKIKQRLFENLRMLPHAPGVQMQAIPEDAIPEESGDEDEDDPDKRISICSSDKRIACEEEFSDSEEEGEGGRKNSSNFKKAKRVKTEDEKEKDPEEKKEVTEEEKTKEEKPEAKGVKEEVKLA

Turning to `CN1CCC(N2Cc3ccccc3N(Cc3ccc(-c4nnc(C(F)F)o4)cc3F)C2=O)CC1` [Compound 33, 1-(4-(5-(difluoromethyl)-1,3,4-oxadiazole-2-yl)-2-fluorobenzyl)-3-(1-methylpiperidine-4-yl)-3,4-dihydroquinazoline-2(1H)-one], the IC50 is over 10000 nM in assay [1] and 169 nM in assay [2].

As to `O=c1n(Cc2ccc(-c3nnc(C(F)F)o3)cc2F)c2ccccc2n1C1CCOCC1` [Compound 34, 1-(4-(5-(difluoromethyl)-1,3,4-oxadiazole-2-yl)-2-fluorobenzyl)-3-(tetrahydro-2H-pyran-4-yl)-1,3-dihydro-2H-benzo[d]imidazole-2-one], the IC50 was over 10000 nM in assay [1] and 235 nM in assay [2].

`O=c1n(Cc2ccc(-c3nnc(C(F)F)o3)cc2F)c2ccccc2n1C1CCS(=O)(=O)CC1` [Compound 35, 1-(4-(5-(difluoromethyl)-1,3,4-oxadiazole-2-yl)-2-fluorobenzyl)-3-(1,1-dioxydotetrahydro-2H-thiopyran-4-yl)-1,3-dihydro-2H-benzo[d]imidazole-2-one]: the 50% inhibitory concentration (IC50) in assay [1] was over 10000 nM; in assay [2] it was 203 nM.

As for `CN(C)CCn1c(=O)n(Cc2ccc(-c3nnc(C(F)F)o3)cc2F)c2ccccc21` [Compound 36, 1-(4-(5-(difluoromethyl)-1,3,4-oxadiazole-2-yl)-2-fluorobenzyl)-3-(2-(dimethylamino)ethyl)-1,3-dihydro-2H-benzo[d]imidazole-2-one], the IC50 in assay [1] was over 10000 nM; in assay [2], 131 nM.

In the case of `O=c1n(Cc2ccc(-c3nnc(C(F)F)o3)cc2F)c2ccccc2n1C1COC1` [Compound 37, 1-(4-(5-(difluoromethyl)-1,3,4-oxadiazole-2-yl)-2-fluorobenzyl)-3-(oxetan-3-yl)-1,3-dihydro-2H-benzo[d]imidazole-2-one], the half-inhibitory concentration (IC50) in assay [1] is over 10000 nM; in assay [2], 158 nM.

In the case of `O=c1n(Cc2ccc(-c3nnc(C(F)F)o3)cc2F)c2ccccc2n1CC1CCN(C2COC2)CC1` [Compound 39, 1-(4-(5-(difluoromethyl)-1,3,4-oxadiazole-2-yl)-2-fluorobenzyl)-3-((1-(oxetan-3-yl)piperidine-4-yl)methyl)-1,3-dihydro-2H-benzo[d]imidazole-2-one], the IC50 in assay [1] was over 10000 nM; in assay [2] it was 167 nM.

Take `CCN1CCC(n2c(=O)n(Cc3ccc(-c4nnc(C(F)F)o4)cn3)c3ccc(F)cc32)CC1` [Compound 40, 1-((5-(5-(difluoromethyl)-1,3,4-oxadiazole-2-yl)pyridine-2-yl)methyl)-3-(1-ethylpiperidine-4-yl)-5-fluoro-1,3-dihydro-2H-benzo[d]imidazole-2-one]: the values for the IC50 in assay [1] and in assay [2] were over 10000 nM and 155 nM, respectively.

Take `O=c1n(Cc2ccc(-c3nnc(C(F)F)o3)cn2)c2ccc(F)cc2n1C1CCN(C2COC2)CC1` [Compound 41, 1-((5-(5-(difluoromethyl)-1,3,4-oxadiazole-2-yl)pyridine-2-yl)methyl)-5-fluoro-3-(1-(oxetan-3-yl)piperidine-4-yl)-1,3-dihydro-2H-benzo[d]imidazole-2-one]: the IC50 in assay [1] was over 10000 nM; in assay [2], 92 nM.

For the molecule `CC(=O)N1CCC(n2c(=O)n(Cc3ccc(-c4nnc(C(F)F)o4)cn3)c3ccc(F)cc32)CC1` [Compound 42, 3-(1-acetylpiperidine-4-yl)-1-((5-(5-(difluoromethyl)-1,3,4-oxadiazole-2-yl)pyridine-2-yl)methyl)-5-fluoro-1,3-dihydro-2H-benzo[d]imidazole-2-one], the IC50 was over 10000 nM in assay [1] and 106 nM in assay [2].

In the case of `CN1CCC(n2c(=O)n(Cc3ccc(-c4nnc(C(F)F)o4)cn3)c3ccc(F)cc32)CC1` [Compound 43, 1-((5-(5-(difluoromethyl)-1,3,4-oxadiazole-2-yl)pyridine-2-yl)methyl)-5-fluoro-3-(1-methylpiperidine-4-yl)-1,3-dihydro-2H-benzo[d]imidazole-2-one], the IC50 in assay [1] is over 10000 nM; in assay [2], 121 nM.

Consider `O=c1n(Cc2ccc(-c3nnc(C(F)F)o3)cn2)c2ccc(F)cc2n1C1CCN(C2CCOCC2)CC1` [Compound 44, 1-((5-(5-(difluoromethyl)-1,3,4-oxadiazole-2-yl)pyridine-2-yl)methyl)-5-fluoro-3-(1-(tetrahydro-2H-pyran-4-yl)piperidine-4-yl)-1,3-dihydro-2H-benzo[d]imidazole-2-one], for which the results for the IC50 in assay [1] and in assay [2] were over 10000 nM and 76 nM, respectively.

`O=c1n(Cc2ccc(-c3nnc(C(F)F)o3)cn2)c2ccc(F)cc2n1C1CCN(C2CCC2)CC1` [Compound 45, 3-(1-cyclobutylpiperidine-4-yl)-1-((5-(5-(difluoromethyl)-1,3,4-oxadiazole-2-yl)pyridine-2-yl)methyl)-5-fluoro-1,3-dihydro-2H-benzo[d]imidazole-2-one]: the figures for the IC50 in assay [1] and in assay [2] were over 10000 nM and 121 nM, respectively.

As to `CC(C)N1CCC(n2c(=O)n(Cc3ccc(-c4nnc(C(F)F)o4)cn3)c3ccc(F)cc32)CC1` [Compound 46, 1-((5-(5-(difluoromethyl)-1,3,4-oxadiazole-2-yl)pyridine-2-yl)methyl)-5-fluoro-3-(1-isopropylpiperidine-4-yl)-1,3-dihydro-2H-benzo[d]imidazole-2-one], the IC50 is over 10000 nM in assay [1] and 103 nM in assay [2].

Turning to `O=c1n(Cc2ccc(-c3nnc(C(F)F)o3)cn2)c2ccc(F)cc2n1C1CCN(C2CCCCC2)CC1` [Compound 47, 3-(1-cyclohexylpiperidine-4-yl)-1-((5-(5-(difluoromethyl)-1,3,4-oxadiazole-2-yl)pyridine-2-yl)methyl)-5-fluoro-1,3-dihydro-2H-benzo[d]imidazole-2-one], the IC50 in assay [1] is over 10000 nM; in assay [2], 126 nM.

As to `CN1CCC(n2c(=O)n(Cc3ccc(-c4nnc(C(F)F)o4)cn3)c3cc(F)ccc32)CC1` [Compound 48, 3-((5-(5-(difluoromethyl)-1,3,4-oxadiazole-2-yl)pyridine-2-yl)methyl)-5-fluoro-1-(1-methylpiperidine-4-yl)-1,3-dihydro-2H-benzo[d]imidazole-2-one], the 50% inhibitory concentration (IC50) was over 10000 nM in assay [1] and 22 nM in assay [2].

Turning to `O=c1n(Cc2ccc(-c3nnc(C(F)F)o3)cn2)c2cc(F)ccc2n1C1CCN(C2CC3(COC3)C2)CC1` [Compound 49, 1-(1-(2-oxaspiro[3.3]heptane-6-yl)piperidine-4-yl)-3-((5-(5-(difluoromethyl)-1,3,4-oxadiazole-2-yl)pyridine-2-yl)methyl)-5-fluoro-1,3-dihydro-2H-benzo[d]imidazole-2-one], the IC50 in assay [1] was over 10000 nM; in assay [2], 35 nM.

For the molecule `CCN1CCC(n2c(=O)n(Cc3ccc(-c4nnc(C(F)F)o4)cn3)c3cc(F)ccc32)CC1` [Compound 50, 3-((5-(5-(difluoromethyl)-1,3,4-oxadiazole-2-yl)pyridine-2-yl)methyl)-1-(1-ethylpiperidine-4-yl)-5-fluoro-1,3-dihydro-2H-benzo[d]imidazole-2-one], the values for the IC50 in assay [1] and in assay [2] were over 10000 nM and 39 nM, respectively.
